The target in the experiment is T1, F2RL3 (Homo sapiens, UniProt Q96RI0).
T1 construct: purchased Promega (in-house HiBiT-GPCR construct library, NanoBRET)
T1 sequence (Q96RI0 18-385): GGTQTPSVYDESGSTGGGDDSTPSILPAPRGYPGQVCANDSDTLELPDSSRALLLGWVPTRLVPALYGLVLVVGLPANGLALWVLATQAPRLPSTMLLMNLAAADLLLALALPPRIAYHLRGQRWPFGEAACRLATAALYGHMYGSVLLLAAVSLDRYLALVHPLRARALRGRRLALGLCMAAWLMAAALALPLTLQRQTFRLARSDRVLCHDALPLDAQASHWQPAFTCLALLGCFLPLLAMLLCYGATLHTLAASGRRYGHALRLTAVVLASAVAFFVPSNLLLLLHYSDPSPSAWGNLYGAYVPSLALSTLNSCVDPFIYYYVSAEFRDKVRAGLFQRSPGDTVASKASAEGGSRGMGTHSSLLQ
As to the kind of experiment: NanoBRET screen HiBiT-F2RL3 in HEK293. The format is binding. Here is the method:
Each tracer candidate was screened across the entire library of HiBiT-GPCR constructs using NanoBRET as the detection modality. As depicted in Figure 4A, the specificity of interactions was evaluated through decrease in BRET due to competitive displacement of a bound tracer by excess parental compound. Each tracer was analyzed for binding to each HiBiT-GPCR fusion in the absence and in the presence of competing parental compound. Briefly, HEK293 cells were transfected with HiBiT-GPCR constructs diluted into promoterless DNA to reduce expression and maximize translocation to the cell surface. Each tracer candidate was then screened at concentrations of 1 μM and 0.1 μM across cells expressing these fusions. Cells were treated for 1.5 h with tracer either alone or in the presence of 20 μM competing parental compound (i.e., control). BRET was measured upon addition of purified LgBiT and subsequent complementation with HiBiT genetically fused to a GPCR. The specificity of interactions was assessed through a decrease in BRET signal due to competitive displacement of the bound tracer. To further gauge the robustness of these interactions, the fold response over the control (i.e., BRETtracer/BRETcontrol) was calculated. We chose a 1.5-fold response, which translates to ≥7-fold signal over noise as the minimal threshold required to score an interaction as positive. […]. Below we highlight the screening results obtained for our exemplary fluorescent tracers based on Clozapine, Amitriptyline and AZD1283.
HiBiT-GPCR DNA constructs were diluted in 10 mM Tris pH 8 to a final concentration of 0.01 μg/μL, arrayed in 96-well plates and stored at −20 °C. For transfection, HEK293 cells were suspended in Opti-MEM (without phenol red) supplemented with 2% fetal bovine serum (Seradigm) and 100 units/mL penicillin–streptomycin (Gibco) at a final concentration of 220,000 cells/mL and dispensed into white 96-well plates at 90 μL/well. Subsequent transfections and screens were carried using an Agilent Bravo Automated Liquid Handling Platform. First, the 96-well HiBiT DNA arrays were diluted 25-fold in Opti-MEM (without serum or phenol red) to a final concentration of 0.0004 μg/μL and 20 μL of the diluted DNAs were transferred into new 96-well plates. Next, promoterless carrier DNA (1 μg/μL) was diluted 25-fold (0.04 μg/μL) and then dispensed into the diluted arrays at 20 μL/well. Following brief mixing, Viafect transfection reagent (Promega) diluted 16-fold into Opti-MEM was dispensed into the plates at 40 μL/well. After mixing by pipetting, plates were incubated for 10 min on the pipetting station deck. The DNA-transfection reagent complexes were then added to plates containing cells. To facilitate the screen, 10 μL of DNA-transfection reagent complexes were added in duplicates to the top 4 and bottom 4 rows, resulting in two identical 48-well arrays per plate. Plates with transfected cells were incubated for 18–20 h at 37 °C/5% CO2. A screen of each tracer across the entire library using two different concentrations requires duplicate plates of transfected cells. Depending on the number of tracers being screened, transfections can be scaled up using the same ratios. The next day, for each tracer, four 20× screening solutions in tracer dilution buffer (Promega) were prepared: two duplicates at final concentration of 20 μM and two duplicates at a final concentration of 2 μM. A competing unmodified compound was added to one of each duplicate at a final concentration of 400 μM. The four resulting solutions were diluted 4-fold in Opti-MEM without serum or phenol red to generate 5× solutions (5 µM and 0.5 µM tracer +/− 100 μM competing compound). To screen the library, a BioTek MultiFlo FX liquid dispenser was used to dispense 22.5 µL of tracer solution to the top 4 rows and 22.5 µL tracer + competing compound solution to the 4 bottom rows. Plates were briefly mixed on an orbital shaker and incubated for 1.5 h at room temperature. […]
On the technique in general: BRET reads energy transfer from a luciferase to a nearby fluorophore.

With `COc1ccc2c(n1)c(CCNC(C)=O)cn2CCNC(=O)CCc1ccc2n1[B-](F)(F)[N+]1=C(c3ccc[nH]3)C=CC1=C2` [Azamelatonin-1-NB590], the “NanoBRET Fold Response” value reads like this: (0.1μM tracer) 0.98; (1μM tracer) 0.86.

For `CC(C)N(CC[C@H](c1ccccc1)c1cc(CCNC(=O)c2ccc(CNC(=O)CCc3ccc4n3[B-](F)(F)[N+]3=C(c5ccc[nH]5)C=CC3=C4)cc2)ccc1O)C(C)C` [Tolterodine-BZ-NB590], the “NanoBRET Fold Response” value by setting is: (F2RL3, tracer 0.1μM) 1.03; (F2RL3, tracer 1μM) 1.06.

In the case of `O=C(CCc1ccc2n1[B-](F)(F)[N+]1=C(c3ccc[nH]3)C=CC1=C2)NCCOCCOCCNC(=O)OCCOCCN1CCN(C2=Nc3ccccc3Sc3ccccc32)CC1` [Quetiapine-a-2-NB590], the “NanoBRET Fold Response” value runs as follows: (F2RL3, tracer 0.1μM) 1.09; (F2RL3, tracer 1μM) 0.84.

For `Cc1cc2c(s1)Nc1ccccc1N=C2N1CCN(CCCNC(=O)CCOCCOCCOCCOCCNC(=O)CCc2ccc3n2[B-](F)(F)[N+]2=C(c4ccc[nH]4)C=CC2=C3)CC1` [Olanzapine-a-2-NB590], the “NanoBRET Fold Response” value was 1.04 (F2RL3, tracer 0.1μM) and 0.98 (F2RL3, tracer 1μM).

Turning to `O=C(CCc1ccc2n1[B-](F)(F)[N+]1=C(c3ccc[nH]3)C=CC1=C2)NCc1ccc(C(=O)NCCOCCOCCNCC(O)COc2cccc3ccccc23)cc1` (stereo not shown) [Propranolol-3-NB590], the “NanoBRET Fold Response” value (F2RL3, 0.1μM) worked out at 1.07 and the “NanoBRET Fold Response” value (F2RL3, 1μM) was 1.00.

Consider `CN1CCN(C2=Nc3cc(Cl)ccc3N(CC(=O)NCCOCCOCCOCCOCCNC(=O)CCc3ccc4n3[B-](F)(F)[N+]3=C(c5ccc[nH]5)C=CC3=C4)c3ccccc32)CC1` [Clozapine-c-2-NB590], for which the “NanoBRET Fold Response” value is listed as 1.02 (F2RL3, 0.1μM tracer) and 0.99 (F2RL3, 1μM tracer).

As to `O=C(CCc1ccc2n1[B-](F)(F)[N+]1=C(c3ccc[nH]3)C=CC1=C2)NCc1ccc(C(=O)NCCOCCC(=O)N[C@@H]2CC[C@@]3(O)[C@H]4Cc5ccc(O)c6c5[C@@]3(CCN4CC3CC3)[C@H]2O6)cc1` [Naltrexone-3-NB590], the “NanoBRET Fold Response” value by setting is: (F2RL3, tracer 0.1μM) 0.92; (F2RL3, tracer 1μM) 1.03.

Regarding `CC(C)N(CC[C@H](c1ccccc1)c1cc(CCNC(=O)CCOCCOCCOCCOCCNC(=O)CCc2ccc3n2[B-](F)(F)[N+]2=C(c4ccc[nH]4)C=CC2=C3)ccc1O)C(C)C` [Tolterodine-2-NB590], the “NanoBRET Fold Response” value reads like this: (F2RL3, tracer 0.1μM) 1.08; (F2RL3, tracer 1μM) 0.97.

Turning to `Cc1nc2n(c(=O)c1CCN1CCC(c3noc4cc(F)ccc34)CC1)CCCC2OC(=O)NCCOCCOCCOCCOCCNC(=O)CCc1ccc2n1[B-](F)(F)[N+]1=C(c3ccc[nH]3)C=CC1=C2` (stereo not shown) [Risperidone-2-NB590], the “NanoBRET Fold Response” value is, setting by setting: (F2RL3, tracer 0.1μM) 0.98; (F2RL3, tracer 1μM) 0.97.

Turning to `O=C(CCOCCOCCOCCOCCNC(=O)CCc1ccc2n1[B-](F)(F)[N+]1=C(c3ccc[nH]3)C=CC1=C2)NCCCN1CCN(C2=Nc3cc(Cl)ccc3Nc3ccccc32)CC1` [Clozapine-a-2-NB590], the “NanoBRET Fold Response” value runs as follows: (F2RL3, 0.1μM tracer) 1.02; (F2RL3, 1μM tracer) 1.15.

As to `COc1ccc2[nH]c(-c3ccc(CNC(=O)CCOCCOCCOCCOCCNC(=O)CCc4ccc5n4[B-](F)(F)[N+]4=C(c6ccc[nH]6)C=CC4=C5)cc3)c(CCNC(C)=O)c2n1` [AzomelatoninICO9-2-NB590], the “NanoBRET Fold Response” value by setting is: (0.1μM tracer) 1.05; (1μM tracer) 1.04.

Regarding `CN1CCN(C2=Nc3cc(Cl)ccc3Nc3ccc(CNC(=O)CCOCCOCCOCCOCCNC(=O)CCc4ccc5n4[B-](F)(F)[N+]4=C(c6ccc[nH]6)C=CC4=C5)cc32)CC1` [Clozapine-b-2-NB590], the “NanoBRET Fold Response” value reads like this: (F2RL3, 0.1μM tracer) 0.99; (F2RL3, 1μM tracer) 1.05.

In the case of `COc1ccccc1N1CCN(CCCCN2C(=O)c3ccc(CNC(=O)CCOCCNC(=O)c4ccc(CNC(=O)CCc5ccc6n5[B-](F)(F)[N+]5=C(c7ccc[nH]7)C=CC5=C6)cc4)cc3C2=O)CC1` [NAN-190-3-NB590], the “NanoBRET Fold Response” value was determined as 1.15 (F2RL3, tracer 0.1μM) and 0.99 (F2RL3, tracer 1μM).

With `N#CN=C(NCCCOc1cccc(CN2CCCCC2)c1)NCCNC(=O)CCOCCOCCOCCOCCNC(=O)CCc1ccc2n1[B-](F)(F)[N+]1=C(c3ccc[nH]3)C=CC1=C2` [Aminopotentidine-2-NB590], the “NanoBRET Fold Response” value by setting is: (F2RL3, tracer 0.1μM) 0.99; (F2RL3, tracer 1μM) 1.06.

For `CN(C)CCC=C1c2ccccc2CCc2ccc(C(=O)NCCNC(=O)CCOCCOCCOCCOCCNC(=O)CCc3ccc4n3[B-](F)(F)[N+]3=C(c5ccc[nH]5)C=CC3=C4)cc21` [Amitriptyline-b-2-NB590], the “NanoBRET Fold Response” value turned out to be 0.94 (tracer at 0.1μM, listed as amitriptyline-b-2-NB590) and 1.04 (tracer at 1μM, listed as amitriptyline-b-2-NB590).

Take `COc1ccccc1N1CCN(CCCCN2C(=O)c3ccc(CNC(=O)CCOCCOCCOCCOCCNC(=O)CCc4ccc5n4[B-](F)(F)[N+]4=C(c6ccc[nH]6)C=CC4=C5)cc3C2=O)CC1` [NAN-190-2-NB590]: the “NanoBRET Fold Response” value came to 0.99 (F2RL3, tracer 0.1μM) and 1.01 (F2RL3, tracer 1μM).

On to `O=C(CCOCCOCCOCCOCCNC(=O)CCc1ccc2n1[B-](F)(F)[N+]1=C(c3ccc[nH]3)C=CC1=C2)NCCCN1CCN(C2=Nc3ccccc3Oc3ccc(Cl)cc32)CC1` [Loxapine-a-2-NB590], for which the “NanoBRET Fold Response” value runs as follows: (F2RL3, tracer 0.1μM) 1.00; (F2RL3, tracer 1μM) 1.02.

Take `CCCn1c(=O)c2[nH]c(-c3ccc(OCC(=O)NCCNC(=O)CCOCCNC(=O)c4ccc(CNC(=O)CCc5ccc6n5[B-](F)(F)[N+]5=C(c7ccc[nH]7)C=CC5=C6)cc4)cc3)nc2n(CCC)c1=O` [XAC-3-NB590]: the “NanoBRET Fold Response” value worked out at 0.99 (F2RL3, tracer 0.1μM) and 1.05 (F2RL3, tracer 1μM).

On to `CN(C)CCC=C1c2ccccc2CCc2ccc(C(=O)NCCNC(=O)CCOCCOCCOCCOCCNC(=O)CCc3ccc4n3[B-](F)(F)[N+]3=C(c5ccc[nH]5)C=CC3=C4)cc21` [Amitriptyline-a-2-NB590], for which the “NanoBRET Fold Response” value is 1.00 (tracer at 0.1μM) and 1.03 (tracer at 1μM).

Consider `CCOC(=O)c1cc(C#N)c(N2CCC(C(=O)NS(=O)(=O)Cc3ccccc3/C=C/C(=O)NCCNC(=O)CCc3ccc4n3[B-](F)(F)[N+]3=C(c5ccc[nH]5)C=CC3=C4)CC2)nc1C` [AZD1283-1-NB590], for which the “NanoBRET Fold Response” value runs as follows: (F2RL3, 0.1μM) 1.04; (F2RL3, 1μM) 1.09.

For the origin of these results see paper PMC8151276, “An Integrated Approach toward NanoBRET Tracers for Analysis of GPCR Ligand Engagement” (Molecules, 2021).
